The EC50 is the concentration that produces a half-maximal response.

The values that follow come from EP4806912A1, “DUAL AGONIST COMPOUND” (Chengdu Aoda Biotechnology Co., Ltd, priority 2023, dated 2025).

One experiment addresses T1, GLP-1R (Homo sapiens, UniProt P43220).
T1 construct: expressed in transfected cells; host or cells: CHO-K1
The experiment in a line: GLP-1 activity test (cAMP, chemiluminescence, CHO-K1 cell line stably expressing GLP-1R). It counts as cell-based. The note with it: relative luminescence units, read-out: GLP-1 activity [EC50(pmol)]. As for the experimental part: (§1) Upon stimulation by a specific agonist, GLP-1R activates the intracellular adenylate cyclase signaling pathway, resulting in an increase in cAMP levels and ultimately leading to insulin production and secretion. A cell line stably transfected with GLP-1R was stimulated with test compounds, thereby rapidly increasing intracellular cAMP levels. The relative luminescence units (RLU) of cells stimulated at various concentrations were measured by a chemiluminescence method, and the EC50 value of the agonist was calculated accordingly. This activity test method is currently a commonly used method for evaluating GLP-1 receptor agonist activity both domestically and internationally.
A CHO-K1 cell line stably expressing GLP-1R was used. The stable cells were stimulated with agonists at different concentrations, and the relative luminescence units after stimulation at each concentration were measured to calculate the EC50 value of the agonist.

The target of another experiment is T2, GCG-R (Homo sapiens, UniProt P47871).
T2 construct: expressed in transfected cells; host or cells: CHO-K1
T2 sequence (P47871 26-477, species assumed): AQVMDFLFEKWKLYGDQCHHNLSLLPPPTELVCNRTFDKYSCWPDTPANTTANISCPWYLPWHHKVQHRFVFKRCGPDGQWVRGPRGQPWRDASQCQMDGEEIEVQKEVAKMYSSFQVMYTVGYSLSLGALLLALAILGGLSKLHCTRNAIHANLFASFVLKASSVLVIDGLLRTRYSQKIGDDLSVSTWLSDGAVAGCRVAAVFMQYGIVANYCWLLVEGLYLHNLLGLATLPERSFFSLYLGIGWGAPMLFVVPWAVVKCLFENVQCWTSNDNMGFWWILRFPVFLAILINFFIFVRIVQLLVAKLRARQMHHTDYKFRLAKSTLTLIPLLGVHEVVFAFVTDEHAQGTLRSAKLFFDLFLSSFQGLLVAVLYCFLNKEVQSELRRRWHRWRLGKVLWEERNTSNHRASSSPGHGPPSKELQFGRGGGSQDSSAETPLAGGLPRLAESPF
The experiment in a line: GCG activity test (cAMP, chemiluminescence, CHO-K1 cell line stably expressing GCG-R). The note with it: relative luminescence units, read-out: GCG activity [EC50(nmol)]. The format is cell-based. As for the experimental part:
as §1, with “agonist, GCG-R” for “agonist, GLP-1R”, “with GCG-R” for “with GLP-1R”, “activity assay” for “activity test”, “evaluating GCG” for “evaluating GLP-1”
A CHO-K1 cell line stably expressing GCG-R was used. The stable cells were stimulated with agonists at different concentrations, and the relative luminescence units after stimulation at each concentration were measured to calculate the EC50 value of the agonist.

T1 sequence (P43220 24-463, species assumed): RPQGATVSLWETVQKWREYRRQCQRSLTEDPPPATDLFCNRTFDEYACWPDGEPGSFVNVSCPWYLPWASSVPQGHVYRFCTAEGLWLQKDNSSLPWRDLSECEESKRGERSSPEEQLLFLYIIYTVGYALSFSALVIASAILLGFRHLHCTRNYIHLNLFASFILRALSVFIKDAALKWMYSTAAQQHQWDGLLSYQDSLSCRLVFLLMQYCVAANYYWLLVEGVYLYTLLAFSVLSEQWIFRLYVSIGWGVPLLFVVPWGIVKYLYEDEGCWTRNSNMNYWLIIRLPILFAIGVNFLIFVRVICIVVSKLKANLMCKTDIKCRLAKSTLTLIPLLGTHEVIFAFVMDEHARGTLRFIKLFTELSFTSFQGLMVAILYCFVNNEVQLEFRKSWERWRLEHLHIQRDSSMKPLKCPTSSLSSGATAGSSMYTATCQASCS

`CC(C)C[C@H](NC(=O)[C@H](CC(C)C)NC(=O)[C@H](Cc1c[nH]c2ccccc12)NC(=O)[C@H](CCC(=O)O)NC(=O)[C@@H](NC(=O)[C@H](Cc1ccccc1)NC(=O)[C@H](CCC(=O)O)NC(=O)[C@H](CCCCNC(=O)COCCOCCOCCOCCOCCNC(=O)CCCC[C@H](NC(=O)CCCCCCCCCCCCCCCCCCC(=O)O)C(=O)O)NC(=O)[C@H](C)NC(=O)[C@H](CCCCN)NC(=O)[C@H](CCCCN)NC(=O)[C@H](CCC(=O)O)NC(=O)[C@H](CC(=O)O)NC(=O)[C@H](CC(C)C)NC(=O)[C@H](Cc1ccc(O)cc1)NC(=O)[C@H](CCCCN)NC(=O)[C@H](CO)NC(=O)[C@H](Cc1ccc(O)cc1)NC(=O)[C@H](CC(=O)O)NC(=O)[C@H](CO)NC(=O)[C@@H](NC(=O)C(C)(Cc1ccccc1)NC(=O)[C@@H](NC(=O)CNC(=O)[C@H](CCC(N)=O)NC(=O)C(C)(C)NC(=O)[C@@H](N)Cc1c[nH]cn1)[C@@H](C)O)[C@@H](C)O)C(C)C)C(=O)N[C@@H](CCC(=O)O)C(=O)NCCCCC(=O)N1CCC[C@H]1C(=O)N[C@@H](CO)C(=O)N[C@@H](CO)C(=O)NCC(=O)N[C@@H](C)C(=O)N1CCC[C@H]1C(=O)N1CCC[C@H]1C(=O)N1CCC[C@H]1C(=O)N[C@@H](CO)C(N)=O` (stereo partly drawn) [Compound 7]: the EC50 on GLP-1R was found to be 0.0914 nM; at GCG-R, 2.3 nM.

On to `CC(C)C[C@H](NC(=O)[C@H](CC(C)C)NC(=O)[C@H](Cc1c[nH]c2ccccc12)NC(=O)[C@H](CCC(=O)O)NC(=O)[C@@H](NC(=O)[C@H](Cc1ccccc1)NC(=O)[C@H](CCC(=O)O)NC(=O)[C@H](CCCCNC(=O)COCCOCCOCCOCCOCCNC(=O)CCCCC[C@H](NC(=O)CCCCCCCCCCCCCCCCCCC(=O)O)C(=O)O)NC(=O)[C@H](C)NC(=O)[C@H](CCCCN)NC(=O)[C@H](CCCCN)NC(=O)[C@H](CCC(=O)O)NC(=O)[C@H](CC(=O)O)NC(=O)[C@H](CC(C)C)NC(=O)[C@H](Cc1ccc(O)cc1)NC(=O)[C@H](CCCCN)NC(=O)[C@H](CO)NC(=O)[C@H](Cc1ccc(O)cc1)NC(=O)[C@H](CC(=O)O)NC(=O)[C@H](CO)NC(=O)[C@@H](NC(=O)C(C)(Cc1ccccc1)NC(=O)[C@@H](NC(=O)CNC(=O)[C@H](CCC(N)=O)NC(=O)C(C)(C)NC(=O)[C@@H](N)Cc1c[nH]cn1)[C@@H](C)O)[C@@H](C)O)C(C)C)C(=O)N[C@@H](CCC(=O)O)C(=O)NCCCCC(=O)N1CCC[C@H]1C(=O)N[C@@H](CO)C(=O)N[C@@H](CO)C(=O)NCC(=O)N[C@@H](C)C(=O)N1CCC[C@H]1C(=O)N1CCC[C@H]1C(=O)N1CCC[C@H]1C(=O)N[C@@H](CO)C(N)=O` (stereo partly drawn) [Compound 8], for which the figures for the EC50 on GLP-1R and on GCG-R were 0.105 nM and 2.6 nM, respectively.

With `CC(C)C[C@H](NC(=O)[C@H](CC(C)C)NC(=O)[C@H](Cc1c[nH]c2ccccc12)NC(=O)[C@H](CCC(=O)O)NC(=O)[C@@H](NC(=O)[C@H](Cc1ccccc1)NC(=O)[C@H](CCC(=O)O)NC(=O)[C@H](CCCCNC(=O)COCCOCCOCCOCCOCCNC(=O)CCCC[C@H](NC(=O)CCCCCCCCCCCCCCCCCCC(=O)O)C(=O)O)NC(=O)[C@H](C)NC(=O)[C@H](CCCCN)NC(=O)[C@H](CCCCN)NC(=O)[C@H](CCC(=O)O)NC(=O)[C@H](CC(=O)O)NC(=O)[C@H](CC(C)C)NC(=O)[C@H](Cc1ccc(O)cc1)NC(=O)[C@H](CCCCN)NC(=O)[C@H](CO)NC(=O)[C@H](Cc1ccc(O)cc1)NC(=O)[C@H](CC(=O)O)NC(=O)[C@H](CO)NC(=O)[C@@H](NC(=O)C(C)(Cc1ccccc1F)NC(=O)[C@@H](NC(=O)CNC(=O)[C@H](CCC(N)=O)NC(=O)C(C)(C)NC(=O)[C@@H](N)Cc1c[nH]cn1)[C@@H](C)O)[C@@H](C)O)C(C)C)C(=O)N[C@@H](CCC(=O)O)C(=O)NCCCCC(=O)N1CCC[C@H]1C(=O)N[C@@H](CO)C(=O)N[C@@H](CO)C(=O)NCC(=O)N[C@@H](C)C(=O)N1CCC[C@H]1C(=O)N1CCC[C@H]1C(=O)N1CCC[C@H]1C(=O)N[C@@H](CO)C(N)=O` (stereo partly drawn) [Compound 11], the concentration giving a half-maximal response (EC50) on GLP-1R is 0.0872 nM; on GCG-R it was 1.5 nM.

With `CC(C)C[C@H](NC(=O)[C@H](CC(C)C)NC(=O)[C@H](Cc1c[nH]c2ccccc12)NC(=O)[C@H](CCC(=O)O)NC(=O)[C@@H](NC(=O)[C@H](Cc1ccccc1)NC(=O)[C@H](CCC(=O)O)NC(=O)[C@H](CCCCNC(=O)COCCOCCOCCOCCOCCNC(=O)CCCCC[C@H](NC(=O)CCCCCCCCCCCCCCCCCCC(=O)O)C(=O)O)NC(=O)[C@H](C)NC(=O)[C@H](CCCCN)NC(=O)[C@H](CCCCN)NC(=O)[C@H](CCC(=O)O)NC(=O)[C@H](CC(=O)O)NC(=O)[C@H](CC(C)C)NC(=O)[C@H](Cc1ccc(O)cc1)NC(=O)[C@H](CCCCN)NC(=O)[C@H](CO)NC(=O)[C@H](Cc1ccc(O)cc1)NC(=O)[C@H](CC(=O)O)NC(=O)[C@H](CO)NC(=O)[C@@H](NC(=O)C(C)(Cc1ccccc1F)NC(=O)[C@@H](NC(=O)CNC(=O)[C@H](CCC(N)=O)NC(=O)C(C)(C)NC(=O)[C@@H](N)Cc1c[nH]cn1)[C@@H](C)O)[C@@H](C)O)C(C)C)C(=O)N[C@@H](CCC(=O)O)C(=O)NCCCCC(=O)N1CCC[C@H]1C(=O)N[C@@H](CO)C(=O)N[C@@H](CO)C(=O)NCC(=O)N[C@@H](C)C(=O)N1CCC[C@H]1C(=O)N1CCC[C@H]1C(=O)N1CCC[C@H]1C(=O)N[C@@H](CO)C(N)=O` (stereo partly drawn) [Compound 12], the concentration giving a half-maximal response (EC50) on GLP-1R came to 0.0954 nM; at GCG-R, 1.8 nM.

For `CC(C)C[C@H](NC(=O)[C@H](CC(C)C)NC(=O)[C@H](Cc1c[nH]c2ccccc12)NC(=O)[C@H](CCC(=O)O)NC(=O)[C@@H](NC(=O)[C@H](Cc1ccccc1)NC(=O)[C@H](CCC(=O)O)NC(=O)[C@H](CCCCNC(=O)COCCOCCNC(=O)COCCOCCNC(=O)CC[C@H](NC(=O)CCCCCCCCCCCCCCCCCCC(=O)O)C(=O)O)NC(=O)[C@H](C)NC(=O)[C@H](CCCCN)NC(=O)[C@H](CCCCN)NC(=O)[C@H](CCC(=O)O)NC(=O)[C@H](CC(=O)O)NC(=O)[C@H](CC(C)C)NC(=O)[C@H](Cc1ccc(O)cc1)NC(=O)[C@H](CCCCN)NC(=O)[C@H](CO)NC(=O)[C@H](Cc1ccc(O)cc1)NC(=O)[C@H](CC(=O)O)NC(=O)[C@H](CO)NC(=O)[C@@H](NC(=O)C(C)(Cc1ccccc1)NC(=O)[C@@H](NC(=O)CNC(=O)[C@H](CCC(N)=O)NC(=O)C(C)(C)NC(=O)[C@@H](N)Cc1c[nH]cn1)[C@@H](C)O)[C@@H](C)O)C(C)C)C(=O)N[C@@H](CCC(=O)O)C(=O)NCCCCC(=O)N1CCC[C@H]1C(=O)N[C@@H](CO)C(=O)N[C@@H](CO)C(=O)NCC(=O)N[C@@H](C)C(=O)N1CCC[C@H]1C(=O)N1CCC[C@H]1C(=O)N1CCC[C@H]1C(=O)N[C@@H](CO)C(N)=O` (stereo partly drawn) [Compound 14], the EC50 on GLP-1R came to 0.088 nM; on GCG-R it was 2.5 nM.

With `CC(C)C[C@H](NC(=O)[C@H](CC(C)C)NC(=O)[C@H](Cc1c[nH]c2ccccc12)NC(=O)[C@H](CCC(=O)O)NC(=O)[C@@H](NC(=O)[C@H](Cc1ccccc1)NC(=O)[C@H](CCC(=O)O)NC(=O)[C@H](CCCCNC(=O)COCCOCCNC(=O)COCCOCCNC(=O)CC[C@H](NC(=O)CCCCCCCCCCCCCCCCCCC(=O)O)C(=O)O)NC(=O)[C@H](C)NC(=O)[C@H](CCCCN)NC(=O)[C@H](CCCCN)NC(=O)[C@H](CCC(=O)O)NC(=O)[C@H](CC(=O)O)NC(=O)[C@H](CC(C)C)NC(=O)[C@H](Cc1ccc(O)cc1)NC(=O)[C@H](CCCCN)NC(=O)[C@H](CO)NC(=O)[C@H](Cc1ccc(O)cc1)NC(=O)[C@H](CC(=O)O)NC(=O)[C@H](CO)NC(=O)[C@@H](NC(=O)C(C)(Cc1ccccc1F)NC(=O)[C@@H](NC(=O)CNC(=O)[C@H](CCC(N)=O)NC(=O)C(C)(C)NC(=O)[C@@H](N)Cc1c[nH]cn1)[C@@H](C)O)[C@@H](C)O)C(C)C)C(=O)N[C@@H](CCC(=O)O)C(=O)NCCCCC(=O)N1CCC[C@H]1C(=O)N[C@@H](CO)C(=O)N[C@@H](CO)C(=O)NCC(=O)N[C@@H](C)C(=O)N1CCC[C@H]1C(=O)N1CCC[C@H]1C(=O)N1CCC[C@H]1C(=O)N[C@@H](CO)C(N)=O` (stereo partly drawn) [Compound 15], the EC50 on GLP-1R was determined as 0.0835 nM; at GCG-R it was 1.8 nM.
